Source: patent US9737504B2, “Dihydroorotic and acid dehydrogenase inhibitor” (NAI INC., priority 2012, dated 2017)

Legend:
[1] = target: T1, human DHOD (Homo sapiens, UniProt Q02127); assay: Measurement of DHOD inhibitory activity (DCIP reduction, end point assay); format: biochemical; details: for inhibition at 0.2 µM: read-out: DHOD inhibition rate (%) 200 nM, 200 nM compound; for IC50: read-out: IC50 (nM) human DHOD (HsDHOD)
Protocol: The compounds of the present invention were used and measured for their DHOD inhibitory activity at concentrations of 200 nM and 1000 nM.
Reduction of DCIP was measured at 600 nm over 20 minutes.

[2] = target: T1, human DHOD; assay: as above; format: biochemical; details: read-out: DHOD inhibition rate (%) 100 nM; 100 nM compound

T1 sequence (Q02127 whole entry): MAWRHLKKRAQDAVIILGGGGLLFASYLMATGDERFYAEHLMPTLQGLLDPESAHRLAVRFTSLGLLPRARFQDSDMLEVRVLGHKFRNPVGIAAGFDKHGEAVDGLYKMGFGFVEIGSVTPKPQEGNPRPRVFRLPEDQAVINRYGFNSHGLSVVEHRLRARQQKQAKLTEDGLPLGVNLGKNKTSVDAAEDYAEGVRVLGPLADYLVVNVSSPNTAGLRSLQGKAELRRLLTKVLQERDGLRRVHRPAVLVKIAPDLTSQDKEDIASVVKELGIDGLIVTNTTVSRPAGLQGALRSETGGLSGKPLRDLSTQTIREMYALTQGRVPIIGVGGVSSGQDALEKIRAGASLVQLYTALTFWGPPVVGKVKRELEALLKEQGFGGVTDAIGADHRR

SMILES: COC(=O)c1cc(Cl)c(O)c(C/C=C(\C)CCC=C(C)C)c1O
- melting point: 71 °C

SMILES: C/C(=C\Cc1c(O)c(Cl)c(C)c(C=O)c1O)CC/C=C/COC(=O)C(C)(C)C [07-11-116-4]
- inhibition at 0.2 µM [1]: 57%
- IC50 [1]: 146 ± 19 nM
- inhibition at 0.1 µM [2]: 87%

SMILES: Cc1c(Cl)c(O)c(/C=C/CCCCCCOC(=O)C(C)C)c(O)c1C=O [200-12-OCOiPr, (E)-8-(3-Chloro-5-formyl-2,6-dihydroxy-4-methylphenyl)-7-octenyl isobutylate]
- inhibition at 0.2 µM [1]: 51%
- IC50 [1]: 326 ± 41 nM
- melting point: 73 °C
- inhibition at 0.1 µM [2]: 85%

SMILES: Cc1c(Cl)c(O)c(/C=C/CCCCCCOC(=O)C(C)(C)C)c(O)c1C=O [200-12-OPiv, (E)-8-(3-Chloro-5-formyl-2,6-dihydroxy-4-methylphenyl)-7-octenyl pivalate]
- melting point: 57 to 58 °C

SMILES: CCC(=O)OCCCCCCC/C=C/c1c(O)c(Cl)c(C)c(C=O)c1O [200-13-OCOEt, (E)-9-(3-Chloro-5-formyl-2,6-dihydroxy-4-methylphenyl)-8-nonenyl propionate]
- melting point: 72 to 73 °C

SMILES: Cc1c(Cl)c(O)c(/C=C/CCCCCCCOC(=O)C(C)(C)C)c(O)c1C=O [200-13-OPiv, (E)-9-(3-Chloro-5-formyl-2,6-dihydroxy-4-methylphenyl)-8-nonenyl pivalate]
- melting point: 69 to 70 °C

SMILES: Cc1c(Cl)c(O)c(CCCCCCCC(=O)O)c(O)c1C=O [215-9-COOH, 8-(3-Chloro-5-formyl-2,6-dihydroxy-4-methylphenyl)octanoic acid]
- melting point: 149 to 150 °C

SMILES: Cc1c(Cl)c(O)c(CCCCCCCCO)c(O)c1C=O [215-9-OH, 5-Chloro-2,4-dihydroxy-3-(8-hydroxyoctyl)-6-methylbenzaldehyde]
- melting point: 129 to 130 °C

SMILES: Cc1c(Cl)c(O)c(CCCCCCCOC(=O)C(C)(C)C)c(O)c1C=O [215-11-OPiv, 7-(3-Chloro-5-formyl-2,6-dihydroxy-4-methylphenyl)heptyl pivalate]
- melting point: 63 to 64 °C

SMILES: COC(=O)CCCCCCCCCc1c(O)c(Cl)c(C)c(C=O)c1O [215-12-COOMe, Methyl 10-(3-chloro-5-formyl-2,6-dihydroxy-4-methylphenyl)decanate]
- melting point: 87 to 88 °C

SMILES: CCC(=O)OCCCCCCCCc1c(O)c(Cl)c(C)c(C=O)c1O [215-12-OCOEt, 8-(3-Chloro-5-formyl-2,6-dihydroxy-4-methylphenyl)octyl propionate]
- melting point: 63 to 64 °C

SMILES: Cc1c(Cl)c(O)c(CCCCCCCCOC(=O)C(C)(C)C)c(O)c1C=O [215-12-OPiv, 8-(3-Chloro-5-formyl-2,6-dihydroxy-4-methylphenyl)octyl pivalate]
- melting point: 70 to 71 °C

SMILES: Cc1c(Cl)c(O)c(CCCCCCCCCCCC(=O)O)c(O)c1C=O [215-13-COOH, 12-(3-Chloro-5-formyl-2,6-dihydroxy-4-methylphenyl)dodecanoic acid]
- melting point: 130 to 131 °C

SMILES: Cc1c(Cl)c(O)c(CCCCCCCCCC(=O)OC(C)C)c(O)c1C=O [215-13-COO^IPr, Isopropyl 10-(3-chloro-2,6-dihydroxy-5-formyl-4-methylphenyl)decanate]
- melting point: 49 °C

SMILES: Cc1c(Cl)c(O)c(CCCCCCCCCOC(=O)C(C)(C)C)c(O)c1C=O [215-13-OPiv, 9-(3-Chloro-5-formyl-2,6-dihydroxy-4-methylphenyl)nonyl pivalate]
- melting point: 62 °C

SMILES: Cc1c(Cl)c(O)c(CCCCCCCCCCCC(=O)OC(C)C)c(O)c1C=O [215-15-COO^IPr, Isopropyl 12-(3-chloro-5-formyl-2,6-dihydroxy-4-methylphenyl)dodecanate]
- melting point: 82 to 83 °C

SMILES: COC(C)(C)CCC/C(C)=C/Cc1c(O)c(Cl)c(C)c(C=O)c1O [231-9-OMe, 3-Chloro-4,6-dihydroxy-5-[(E)-7-methoxy-3,7-dimethyl-2-octeny]-2-methyl benzaldehyde]
- inhibition at 0.2 µM [1]: 75%
- IC50 [1]: 67 ± 7 nM
- inhibition at 0.1 µM [2]: 98%

SMILES: C/C(=C\Cc1c(O)c(Cl)c(C)c(C=O)c1O)CC/C=C(\C)COC(=O)C(C)(C)C [234-12-OPiv, (2E,6E)-8-(3-Chloro-5-formyl-2,6-dihydroxy-4-methylphenyl)-2,6-dimethyl-2,6-octadienyl pivalate]
- inhibition at 0.2 µM [1]: 72%
- IC50 [1]: 98 ± 5 nM
- inhibition at 0.1 µM [2]: 102%

SMILES: C/C(=C\CC/C(C)=C/Cc1c(O)c(Cl)c(C)c(C=O)c1O)CO [236-9-OH, 3-Chloro-4,6-dihydroxy-5-(2E,6E)-8-hydroxy-3,7-dimethyl-2,6-octadienyl-2-methylbenzaldehyde]
- inhibition at 0.2 µM [1]: 82%
- IC50 [1]: 44 ± 5 nM
- melting point: 99 to 99.7 °C
- inhibition at 0.1 µM [2]: 103%

SMILES: C/C(=C\Cc1c(O)c(Cl)c(C)c(C=O)c1O)CC/C=C(\C)COC1CCCO1 (stereo not drawn) [236-12-OTHF, 3-Chloro-5-(2E,6E)-3,7-dimethyl-8-(tetrahydrofuran-2-yloxy)-2,6-octadienyl-4,6-dihydroxy-2-methylbenzaldehyde]
- inhibition at 0.2 µM [1]: 86%
- IC50 [1]: 33 ± 3 nM
- melting point: 35 to 36 °C
- inhibition at 0.1 µM [2]: 97%

SMILES: CCCCC/C(C)=C/Cc1c(O)c(Cl)c(C)c(C=O)c1O [264-8, (E)-3-Chloro-4,6-dihydroxy-2-methyl-5-(3-methyl-2-octenyl)benzaldehyde]
- inhibition at 0.2 µM [1]: 74%
- IC50 [1]: 71 ± 2 nM
- inhibition at 0.1 µM [2]: 90%

SMILES: C/C(=C\Cc1c(O)c(Cl)c(C)c(C=O)c1O)CCCCOC(=O)C(C)(C)C [264-11-OPiv, (5E)-7-(3-Chloro-5-formyl-2,6-dihydroxy-4-methylphenyl)-5-methyl-5-heptenyl pivalate]
- inhibition at 0.2 µM [1]: 58%
- IC50 [1]: 123 ± 18 nM
- inhibition at 0.1 µM [2]: 94%

SMILES: CCCCCC(C)CCc1c(O)c(Cl)c(C)c(C=O)c1O (stereo not drawn) [265-8, 3-Chloro-4,6-dihydroxy-2-methyl-5-(3-methyloctyl)benzaldehyde]
- melting point: 65 to 67 °C

SMILES: COC(CC(=O)C(C)(C)C)/C(C)=C/CC/C(C)=C/Cc1c(O)c(Cl)c(C)c(C=O)c1O (stereo not drawn) [271-12, 3-Chloro-4,6-dihydroxy-2-methyl-5-(2E,6E)-(8-methoxy-3,7,11,11-tetramethyl-10-oxo-2,6-dodecadienyl)benzaldehyde]
- inhibition at 0.2 µM [1]: 76%
- IC50 [1]: 60 ± 21 nM
- inhibition at 0.1 µM [2]: 95%

SMILES: C/C(C=O)=C\CC/C(C)=C/Cc1c(O)c(Cl)c(C)c(C=O)c1O [274-9, 3-Chloro-5-[(2E,6E)-3,7-dimethyl-8-oxo-2,6-octadienyl]-4,6-dihydroxy-2-methylbenzaldehyde]
- inhibition at 0.2 µM [1]: 90%
- IC50 [1]: 31 ± 3 nM
- melting point: 111.2 to 111.4 °C
- inhibition at 0.1 µM [2]: 98%

SMILES: CC(=O)/C(C)=C/CC/C(C)=C/Cc1c(O)c(Cl)c(C)c(C=O)c1O [276-9]
- inhibition at 0.2 µM [1]: 87%
- IC50 [1]: 24 ± 3 nM
- melting point: 119 to 120 °C
- inhibition at 0.1 µM [2]: 96%

SMILES: Cc1c(Cl)c(O)c(CCCCCCC(C)C)c(O)c1C=O [279-8, 3-Chloro-4,6-dihydroxy-2-methyl-5-(7-methyloctyl)benzaldehyde]
- melting point: 93 to 94 °C

SMILES: C/C(=C\Cc1c(O)c(Cl)c(C)c(C=O)c1O)CC/C=C(\C)CCC1OC1(C)C (stereo not drawn) [281-12, 3-Chloro-5-(2E,6E)-3,7-dimethyl-9-(3,3-dimethyloxiran-2-yl)-2,6-nonadienyl-4,6-dihydroxy-2-methylbenzaldehyde]
- inhibition at 0.2 µM [1]: 79%
- IC50 [1]: 50 ± 5 nM
- melting point: 36 to 37 °C
- inhibition at 0.1 µM [2]: 100%

SMILES: C/C(=C\COC(=O)C(C)(C)C)CC/C(C)=C/Cc1c(O)c(Cl)c(C)c(C=O)c1O [287-12-OPiv, (2E,6E)-8-(3-Chloro-5-formyl-2,6-dihydroxy-4-methylphenyl)-3,6-dimethyl-2,6-octadienyl pivalate]
- inhibition at 0.2 µM [1]: 82%
- IC50 [1]: 67 ± 3 nM
- inhibition at 0.1 µM [2]: 104%

SMILES: C/C(=C\Cc1c(O)c(Cl)c(C)c(C=O)c1O)CC/C=C(\C)C1OC(C)C(C)O1 (stereo not drawn) [509-11, 3-Chloro-5-((2E,6E)-7-(4,5-dimethyl-1,3-dioxolan-2-yl)-3-methyl-2,6-octadienyl)-4,6-dihydroxy-2-methylbenzaldehyde]
- melting point: 35 to 36 °C

SMILES: CC(C)=CCC/C(C)=C/Cc1c(O)c(Cl)c(C)c(C=O)c1O [CC-B, (E)-3-Chloro-4,6-dihydroxy-5-(3,7-dimethyl-2,6-octadienyl)-2-methylbenzaldehyde]
- inhibition at 0.2 µM [1]: 69%
- IC50 [1]: 1050 ± 214 nM
- inhibition at 0.1 µM [2]: 100%

SMILES: COC(=O)c1c(C)cc(O)c(C/C=C(\C)CCC=C(C)C)c1O [compound 146, Methyl (E)-3-(3,7-dimethyl-2,6-octadienyl)-2,4-dihydroxy-6-methylbenzoate]
- melting point: 46 to 47 °C

SMILES: COC(=O)c1ccc(O)c(C/C=C(\C)CCC=C(C)C)c1O [compound 161, Methyl (E)-3-(3,7-dimethyl-2,6-octadienyl)-2,4-dihydroxybenzoate]
- melting point: 62 °C

SMILES: C/C(=C\Cc1c(O)c(Cl)cc(C=O)c1O)CC/C=C(\C)C1CC(=O)C(C)(C)O1 (stereo not drawn) [compound 209, 5-Chloro-2,4-dihydroxy-3-[(2E,6E)-7-(5,5-dimethyl-4-oxotetrahydrofuran-2-yl)-3,7-dimethyl-2,6-heptadienyl]benzaldehyde]
- melting point: 70 to 72 °C

SMILES: CC(C)=CCC/C(C)=C/Cc1c(O)cc(C)c(C=O)c1O [compound 216, (E)-2,4-Dihydroxy-3-(3,7-dimethyl-2,6-octadienyl)-6-methylbenzaldehyde]
- melting point: 120 to 121 °C

SMILES: CC(C)=CCC/C(C)=C/Cc1c(O)ccc(C=O)c1O [compound 217, (E)-2,4-Dihydroxy-3-(3,7-dimethyl-2,6-octadienyl)benzaldehyde]
- melting point: 85 °C

SMILES: CC(C)=CCC/C(C)=C/Cc1c(O)c(Cl)cc(C=O)c1O [compound 224, (E)-5-Chloro-2,4-dihydroxy-3-(3,7-dimethyl-2,6-octadienyl)benzaldehyde]
- melting point: 94 to 95 °C

SMILES: Cc1c(Cl)c(O)c(CCCCCCCC2CC(=O)C(C)(C)O2)c(O)c1C=O (stereo not drawn) [compound 250, 5-Chloro-2,4-dihydroxy-6-methyl-3-[7-(3,3-dimethyl-4-oxo-2-oxacyclopentyl)heptyl]benzaldehyde]
- melting point: 70 to 71 °C
